Calls of active or inactive are those of the source. No cut-off for these calls is given here.
Columns and labels:
Assay type in all cases: functional, organism-based
Details in all cases: Trachea
[1] = test system: Pseudomonas aeruginosa; assay: Antimicrobial activity against Pseudomonas aeruginosa 23C5 tracheal isolates from mechanically ventilated chronic respiratory insufficiency patient
[2] = test system: Pseudomonas aeruginosa; assay: Antimicrobial activity against Pseudomonas aeruginosa 19F2 tracheal isolates from mechanically ventilated chronic respiratory insufficiency patient
[3] = test system: Pseudomonas aeruginosa; assay: Antimicrobial activity against Pseudomonas aeruginosa 13D11 tracheal isolates from mechanically ventilated chronic respiratory insufficiency patient
[4] = test system: Pseudomonas aeruginosa; assay: Antimicrobial activity against Pseudomonas aeruginosa 5H6 tracheal isolates from mechanically ventilated chronic respiratory insufficiency patient
[5] = test system: Pseudomonas aeruginosa; assay: Antimicrobial activity against Pseudomonas aeruginosa IA5 tracheal isolates from mechanically ventilated tuberculosis patient
[6] = test system: Pseudomonas aeruginosa; assay: Antimicrobial activity against Pseudomonas aeruginosa 29H1 tracheal isolates from mechanically ventilated chronic respiratory insufficiency patient
[7] = test system: Pseudomonas aeruginosa; assay: Antimicrobial activity against Pseudomonas aeruginosa 19B1 tracheal isolates from mechanically ventilated chronic respiratory insufficiency patient
[8] = test system: Pseudomonas aeruginosa; assay: Antimicrobial activity against Pseudomonas aeruginosa 65.38-4 tracheal isolates from mechanically ventilated tuberculosis patient
[9] = test system: Pseudomonas aeruginosa; assay: Antimicrobial activity against Pseudomonas aeruginosa IC7 tracheal isolates from mechanically ventilated tuberculosis patient
[10] = test system: Pseudomonas aeruginosa; assay: Antimicrobial activity against Pseudomonas aeruginosa 12A3 tracheal isolates from mechanically ventilated chronic respiratory insufficiency patient
[11] = test system: Pseudomonas aeruginosa; assay: Antimicrobial activity against Pseudomonas aeruginosa 2A5 tracheal isolates from mechanically ventilated chronic respiratory insufficiency patient
[12] = test system: Pseudomonas aeruginosa; assay: Antimicrobial activity against Pseudomonas aeruginosa 19E9 tracheal isolates from mechanically ventilated chronic respiratory insufficiency patient
[13] = test system: Pseudomonas aeruginosa; assay: Antimicrobial activity against Pseudomonas aeruginosa 19F1 tracheal isolates from mechanically ventilated chronic respiratory insufficiency patient
[14] = test system: Pseudomonas aeruginosa; assay: Antimicrobial activity against Pseudomonas aeruginosa 65.18-1 tracheal isolates from mechanically ventilated tuberculosis patient
[15] = test system: Pseudomonas aeruginosa; assay: Antimicrobial activity against Pseudomonas aeruginosa 22C5 tracheal isolates from mechanically ventilated chronic respiratory insufficiency patient
[16] = test system: Pseudomonas aeruginosa; assay: Antimicrobial activity against Pseudomonas aeruginosa 9B2 tracheal isolates from mechanically ventilated chronic respiratory insufficiency patient
[17] = test system: Pseudomonas aeruginosa; assay: Antimicrobial activity against Pseudomonas aeruginosa 8A2 tracheal isolates from mechanically ventilated chronic respiratory insufficiency patient
[18] = test system: Pseudomonas aeruginosa; assay: Antimicrobial activity against Pseudomonas aeruginosa 1C9 tracheal isolates from mechanically ventilated tuberculosis patient
[19] = test system: Pseudomonas aeruginosa; assay: Antimicrobial activity against Pseudomonas aeruginosa 19C5 tracheal isolates from mechanically ventilated chronic respiratory insufficiency patient
[20] = test system: Pseudomonas aeruginosa; assay: Antimicrobial activity against Pseudomonas aeruginosa 24E6 tracheal isolates from mechanically ventilated chronic respiratory insufficiency patient
[21] = test system: Pseudomonas aeruginosa; assay: Antimicrobial activity against Pseudomonas aeruginosa 3D10 tracheal isolates from mechanically ventilated chronic respiratory insufficiency patient
[22] = test system: Pseudomonas aeruginosa; assay: Antimicrobial activity against Pseudomonas aeruginosa 24D1 tracheal isolates from mechanically ventilated chronic respiratory insufficiency patient
[23] = test system: Pseudomonas aeruginosa; assay: Antimicrobial activity against Pseudomonas aeruginosa 13D6 tracheal isolates from mechanically ventilated chronic respiratory insufficiency patient
[24] = test system: Pseudomonas aeruginosa; assay: Antimicrobial activity against Pseudomonas aeruginosa 24E1 tracheal isolates from mechanically ventilated chronic respiratory insufficiency patient
[25] = test system: Pseudomonas aeruginosa; assay: Antimicrobial activity against Pseudomonas aeruginosa 12A7 tracheal isolates from mechanically ventilated chronic respiratory insufficiency patient
[26] = test system: Pseudomonas aeruginosa; assay: Antimicrobial activity against Pseudomonas aeruginosa 19E12 tracheal isolates from mechanically ventilated chronic respiratory insufficiency patient
[27] = test system: Pseudomonas aeruginosa; assay: Antimicrobial activity against Pseudomonas aeruginosa 9A3 tracheal isolates from mechanically ventilated chronic respiratory insufficiency patient
[28] = test system: Pseudomonas aeruginosa; assay: Antimicrobial activity against Pseudomonas aeruginosa 12B2 tracheal isolates from mechanically ventilated chronic respiratory insufficiency patient
[29] = test system: Pseudomonas aeruginosa; assay: Antimicrobial activity against Pseudomonas aeruginosa 65.18-2 tracheal isolates from mechanically ventilated tuberculosis patient
[30] = test system: Pseudomonas aeruginosa; assay: Antimicrobial activity against Pseudomonas aeruginosa 15G10 tracheal isolates from mechanically ventilated chronic respiratory insufficiency patient
[31] = test system: Pseudomonas aeruginosa; assay: Antimicrobial activity against Pseudomonas aeruginosa 15H5 tracheal isolates from mechanically ventilated chronic respiratory insufficiency patient
[32] = test system: Pseudomonas aeruginosa; assay: Antimicrobial activity against Pseudomonas aeruginosa 16D2 tracheal isolates from mechanically ventilated chronic respiratory insufficiency patient
[33] = test system: Pseudomonas aeruginosa; assay: Antimicrobial activity against Pseudomonas aeruginosa 2A1 tracheal isolates from mechanically ventilated tuberculosis patient
[34] = test system: Pseudomonas aeruginosa; assay: Antimicrobial activity against Pseudomonas aeruginosa 13D3 tracheal isolates from mechanically ventilated chronic respiratory insufficiency patient
[35] = test system: Pseudomonas aeruginosa; assay: Antimicrobial activity against Pseudomonas aeruginosa 19D10 tracheal isolates from mechanically ventilated chronic respiratory insufficiency patient
[36] = test system: Pseudomonas aeruginosa; assay: Antimicrobial activity against Pseudomonas aeruginosa 19E1 tracheal isolates from mechanically ventilated chronic respiratory insufficiency patient
[37] = test system: Pseudomonas aeruginosa; assay: Antimicrobial activity against Pseudomonas aeruginosa 24E2 tracheal isolates from mechanically ventilated chronic respiratory insufficiency patient
[38] = test system: Pseudomonas aeruginosa; assay: Antimicrobial activity against Pseudomonas aeruginosa 19D9 tracheal isolates from mechanically ventilated chronic respiratory insufficiency patient
[39] = test system: Pseudomonas aeruginosa; assay: Antimicrobial activity against Pseudomonas aeruginosa 19C12 tracheal isolates from mechanically ventilated chronic respiratory insufficiency patient
[40] = test system: Pseudomonas aeruginosa; assay: Antimicrobial activity against Pseudomonas aeruginosa 65.36-1 tracheal isolates from mechanically ventilated tuberculosis patient
[41] = test system: Pseudomonas aeruginosa; assay: Antimicrobial activity against Pseudomonas aeruginosa 2B5 tracheal isolates from mechanically ventilated tuberculosis patient
[42] = test system: Pseudomonas aeruginosa; assay: Antimicrobial activity against Pseudomonas aeruginosa 65.18-3 tracheal isolates from mechanically ventilated tuberculosis patient
[43] = test system: Pseudomonas aeruginosa; assay: Antimicrobial activity against Pseudomonas aeruginosa 65.33-3 tracheal isolates from mechanically ventilated tuberculosis patient
[44] = test system: Pseudomonas aeruginosa; assay: Antimicrobial activity against Pseudomonas aeruginosa 24F4 tracheal isolates from mechanically ventilated chronic respiratory insufficiency patient
[45] = test system: Pseudomonas aeruginosa; assay: Antimicrobial activity against Pseudomonas aeruginosa 24D5 tracheal isolates from mechanically ventilated chronic respiratory insufficiency patient
[46] = test system: Pseudomonas aeruginosa; assay: Antimicrobial activity against Pseudomonas aeruginosa 65.38-2 tracheal isolates from mechanically ventilated tuberculosis patient
[47] = test system: Pseudomonas aeruginosa; assay: Antimicrobial activity against Pseudomonas aeruginosa 65.38-3 tracheal isolates from mechanically ventilated tuberculosis patient

Structure (SMILES): CO/N=C(\C(=O)N[C@@H]1C(=O)N2C(C(=O)[O-])=C(C[N+]3(C)CCCC3)CS[C@H]12)c1csc(N)n1
- Activity [1]: Active
- Activity [2]: Active
- Activity [3]: Active
- Activity [4]: Active
- Activity [5]: Active
- Activity [6]: inactive
- Activity [7]: Active
- Activity [8]: Active
- Activity [9]: Active
- Activity [10]: Active
- Activity [11]: Active
- Activity [12]: Active
- Antimicrobial activity [13]: Active
- Activity [14]: Active
- Activity [15]: Active
- Activity [16]: Active
- Activity [17]: Active
- Activity [18]: Active
- Activity [19]: Active
- Activity [20]: Active
- Activity [21]: Active
- Activity [22]: Active
- Activity [23]: Active
- Activity [24]: Active
- Activity [25]: Active
- Activity [26]: Active
- Activity [27]: Active
- Activity [28]: Active
- Activity [29]: Active
- Activity [30]: Active
- Activity [31]: Active
- Activity [32]: Active
- Activity [33]: Active
- Activity [34]: Active
- Activity [35]: Active
- Activity [36]: Active
- Activity [37]: Active
- Activity [38]: Active
- Activity [39]: Active
- Activity [40]: Active
- Activity [41]: Active
- Activity [42]: Active

Structure (SMILES): CCn1cc(C(=O)O)c(=O)c2cc(F)c(N3CCNCC3)cc21
- Activity [3]: Active
- Activity [4]: Active
- Activity [5]: Active
- Activity [6]: inactive
- Activity [8]: Active
- Activity [9]: Active
- Activity [10]: Active
- Activity [11]: Active
- Activity [12]: Active
- Activity [43]: Active
- Activity [14]: Active
- Activity [15]: Active
- Activity [16]: Active
- Activity [44]: Active
- Activity [17]: Active
- Activity [18]: Active
- Activity [19]: Active
- Activity [21]: Active
- Activity [22]: Active
- Activity [25]: Active
- Activity [27]: Active
- Activity [28]: Active
- Activity [29]: Active
- Activity [31]: Active
- Activity [33]: Active
- Activity [45]: inactive
- Activity [46]: Active
- Activity [47]: Active
- Activity [38]: inactive
- Activity [40]: Active
- Activity [41]: Active
- Activity [42]: Active

Structure (SMILES): O=C(O)c1cn(C2CC2)c2cc(N3CCNCC3)c(F)cc2c1=O
- Activity [3]: Active
- Activity [4]: Active
- Activity [5]: Active
- Activity [6]: inactive
- Activity [8]: Active
- Activity [9]: Active
- Activity [10]: Active
- Activity [11]: Active
- Activity [12]: Active
- Activity [43]: Active
- Activity [14]: Active
- Activity [15]: Active
- Activity [16]: Active
- Activity [44]: Active
- Activity [17]: Active
- Activity [18]: Active
- Activity [19]: Active
- Activity [21]: Active
- Activity [22]: Active
- Activity [25]: Active
- Activity [27]: Active
- Activity [28]: Active
- Activity [29]: Active
- Activity [31]: Active
- Activity [33]: Active
- Activity [46]: Active
- Activity [47]: Active
- Activity [38]: inactive
- Activity [40]: Active
- Activity [41]: Active
- Activity [42]: Active

Reference: ChEMBL document CHEMBL1147101, “Development and persistence of antimicrobial resistance in Pseudomonas aeruginosa: a longitudinal observation in mechanically ventilated patients” (Antimicrob Agents Chemother, 2007)
